In ChEMBL document CHEMBL3352449, “Synthesis and biological evaluation of 1α,25-dihydroxyvitamin D3 analogues with aromatic side chains attached at C-17” (Eur J Med Chem, 2014) one finds Ratio, IC50 and Activity data, which are given here for four compounds.

The source made the active and inactive calls. No cut-off for these calls is given here.

The target in test [1] is T1, Vitamin D3 receptor (Bos taurus) (UniProt Q28037).
T1 sequence (whole entry): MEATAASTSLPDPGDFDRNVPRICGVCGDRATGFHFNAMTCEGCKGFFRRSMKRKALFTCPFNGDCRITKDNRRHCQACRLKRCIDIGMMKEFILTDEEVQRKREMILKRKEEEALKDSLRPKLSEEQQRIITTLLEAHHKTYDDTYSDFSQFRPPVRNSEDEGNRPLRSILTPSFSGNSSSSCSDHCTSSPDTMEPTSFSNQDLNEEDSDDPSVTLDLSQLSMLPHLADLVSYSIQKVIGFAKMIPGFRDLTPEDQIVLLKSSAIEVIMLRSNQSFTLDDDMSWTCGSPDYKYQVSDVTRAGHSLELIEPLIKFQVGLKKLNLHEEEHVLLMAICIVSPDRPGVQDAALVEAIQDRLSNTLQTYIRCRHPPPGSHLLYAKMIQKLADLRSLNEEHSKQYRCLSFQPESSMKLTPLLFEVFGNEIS
The test can be described thus: Displacement of [3H]-1alpha,25-dihydroxyvitamin D3 from bovine thymus VDR measured after overnight incubation relative to 1alpha,25-dihydroxyvitamin D3. Background: In a radioligand displacement assay an active substance lowers the binding of a labelled ligand.

The test system of a further test is MCF7. The test can be described thus: Antiproliferative activity against human MCF7 cells assessed as inhibition of proliferation after 72 hrs by MTT assay. The format is functional, cell-based. The following applies: MCF7, 72 h. Background: Formazan colour is commonly taken as a measure of viable cells.
In the next test the test system is HL-60. The test can be described thus: Induction of cell differentiation in human HL60 cells assessed as maturing morphological changes at 30 to 1000 nM after 48 hrs by Wright's-Giemsa staining-based forty microscopic view assay. The class given is functional.

Usually IC50 stands for the point on the concentration scale where inhibition reaches its midpoint.

On to `C=C1/C(=C\C=C2/CCC[C@]3(C)C(c4cccc(CCCC(C)(C)O)c4)=CC[C@@H]23)C[C@@H](O)C[C@@H]1O`, for which the Ratio in test [1] worked out at 0.015. In addition, the IC50 with MCF7 is 7.56 µM. Besides, the result in the test with HL-60 was Active.
As to `C=C1CC[C@H](O)C/C1=C/C=C1\CCC[C@]2(C)[C@@H]([C@H](C)CCCC(C)(C)O)CC[C@@H]12`, the Ratio in test [1] worked out at 0.01.
As to `C=C1/C(=C\C=C2/CCC[C@]3(C)C(c4ccccc4CCCC(C)(C)O)=CC[C@@H]23)C[C@@H](O)C[C@@H]1O`, in test [1], the Ratio amounted to 0.01. The IC50 with MCF7 is 7.08 µM. Besides, the outcome in the test with HL-60 was Active.
Consider `C=C1/C(=C\C=C2/CCC[C@]3(C)[C@@H]([C@H](C)CCCC(C)(C)O)CC[C@@H]23)C[C@@H](O)C[C@@H]1O`, for which the result with HL-60 was Active.
